“Also recorded” adds a separate entry of the source.
Legend:
[1] = tested on: mice treated with PCP serving as animal models of schizophrenia; assay: Novel object recognition test (NORT) in mice repeatedly administered with PCP (animal model of schizophrenia); type: in vivo; settings: for cognitive function in NORT (ratio of time to find the novel object relative to time to find the two objects): male ICR mice, PCP 10 mg/kg s.c. for ten days, test drug 10 mg/kg intraperitoneally on days 15, 18, 22, 25, vs PCP+physiological saline
Method: The creation of model animals of a cognitive impairment of schizophrenia and drug administration were specifically carried out as described below (FIG. 1). For the mice, male ICR mice (8 weeks old, Japan SLC Inc., Hamamatsu, Japan) were purchased. The mice were allowed to freely ingest water and feed. On the first day of testing, physiological saline (10 mL/kg bodyweight) or PCP (10 mg/kg bodyweight) was subcutaneously administered once a day for ten days (from the first day of testing to the fifth day of testing and from the eighth day of testing to the twelfth day of testing: no administration on the sixth and seventh days of testing). On the fifteenth day of testing, the eighteenth day of testing, the twenty-second day of testing, and the twenty-fifth day of testing, R-ketamine (10 mg/kg bodyweight) or a medium (10 mL/kg of physiological saline) was intraperitoneally administered. […] The novel object recognition test (NORT: novel object recognition test) is a system used to evaluate cognitive functions. The NORT was carried out according to a previous report (Hashimoto et al. Eur. J. Pharmacol. 2005; 519 (1-2): 114-117). From the twenty-sixth day to the twenty-eighth day of testing, acclimation to a NORT apparatus (50.8×50.8×25.4 cm) was performed for 10 minutes per day. On the twenty-ninth day of testing, two objects of different shapes and colors were placed 35.5 cm apart in the NORT apparatus, and an amount of time to find each object was measured. A training session (10 minutes) was carried out, and on the following day, the thirtieth day of testing, a test session (5 minutes) was carried out (FIG. 1). In the test session on the following day, one object was replaced with another, new object (novel object). An amount of time to find the two objects was measured, and in the test session on the second day, a ratio of an amount of time to find the novel object relative to the amount of time to find the two objects was calculated. On the day following the end of behavior testing, a brain region (frontal cortex, hippocampus) of the mice was extracted, and the brain tissue was stored in a freezer. Brain-derived neurotrophic factor (BDNF: brain-derived neurotrophic factor); TrkB, which is a BDNF receptor; and phosphorylated TrkB in the brain tissue were quantified by western blotting (FIG. 3).
The effect of S-ketamine was examined according to the method above. On the first day of testing, physiological saline (10 mL/kg bodyweight) or PCP (10 mg/kg bodyweight) was subcutaneously administered once a day for ten days (from the first day of testing to the fifth day of testing and from the eighth day of testing to the twelfth day of testing: no administration on the sixth and seventh days of testing). […]

[2] = tested on: NMDA receptors; settings: non-patent literature 11; cited from earlier work
[3] = tested on: BDNF-TrkB system; assay: Western blotting of BDNF, TrkB and phosphorylated TrkB in frontal cortex and hippocampus of PCP-treated mice; type: in vivo; settings: R-ketamine 10 mg/kg i.p., brain extracted after behavior testing
Method: The creation of model animals of a cognitive impairment of schizophrenia and drug administration were specifically carried out as described below (FIG. 1). For the mice, male ICR mice (8 weeks old, Japan SLC Inc., Hamamatsu, Japan) were purchased. The mice were allowed to freely ingest water and feed. On the first day of testing, physiological saline (10 mL/kg bodyweight) or PCP (10 mg/kg bodyweight) was subcutaneously administered once a day for ten days (from the first day of testing to the fifth day of testing and from the eighth day of testing to the twelfth day of testing: no administration on the sixth and seventh days of testing). On the fifteenth day of testing, the eighteenth day of testing, the twenty-second day of testing, and the twenty-fifth day of testing, R-ketamine (10 mg/kg bodyweight) or a medium (10 mL/kg of physiological saline) was intraperitoneally administered. […] On the day following the end of behavior testing, a brain region (frontal cortex, hippocampus) of the mice was extracted, and the brain tissue was stored in a freezer. Brain-derived neurotrophic factor (BDNF: brain-derived neurotrophic factor); TrkB, which is a BDNF receptor; and phosphorylated TrkB in the brain tissue were quantified by western blotting (FIG. 3). […]

[4] = animal testing, non-patent literature 12 to 14; cited from earlier work
[5] = tested on: baby mice (male) born from pregnant mice administered with Poly (I:C); assay: Novel object recognition test in offspring of pregnant mice administered with Poly (I:C) (maternal immune activation model); type: in vivo; settings: male offspring of Poly (I:C) 5 mg/kg dams; R-ketamine 10 mg/kg i.p. twice a week, four weeks (weeks 4 to 8 after birth); NORT at 10 weeks old or thereafter
Method: The creation of model animals of a neurodevelopmental disorder such as schizophrenia or autism spectrum disorder (models of maternal immune activation) and drug administration were specifically carried out as described below (FIG. 5). For the mice, pregnant ddY mice (8 to 10 weeks old, Japan SLC Inc., Hamamatsu, Japan) were purchased. The mice were allowed to freely ingest water and feed. Physiological saline (5 mL/kg bodyweight) or Poly (I:C) (Sigma-Aldrich: 5 mg/kg bodyweight) was intraperitoneally administered for six days, from the twelfth day of pregnancy to the seventeenth day of pregnancy, according to previous reports (Han M, et al. Sci Rep 2016; 6:36087. Matsuura A, et al. Sci Rep 2018; 8: 2158. Ma M, et al. Proc Natl Acad Sci USA 2019; 116: 7083-7088). After birth, the mice were raised normally, and at 3 weeks old, only the male mice were weaned and raised. R-ketamine (10 mg/kg bodyweight) or a medium (10 mL/kg of physiological saline) was intraperitoneally administered twice a week for four weeks, from the fourth week after birth to the eighth week after birth. […] From 8 weeks old, these were raised normally. The above NORT was carried out at 10 weeks old or thereafter.
Statistical analysis was carried out by performing a one-way analysis of variance (one-way ANOVA) and subsequently performing Fisher's LSD (Fisher's LSD). […]

Row | SMILES | cognitive function in NORT (ratio of time to find the novel object relative to time to find the two objects) [1] | affinity toward NMDA receptors relative to R-ketamine [2] | BDNF protein expression in the frontal cortex and the hippocampus [3] | ratio p-TrkB/TrkB in the frontal cortex and the hippocampus [3] | cognitive function in NORT, TrkB role study ([1]; PCP-treated mice, solvent 30 minutes before R-ketamine 10 mg/kg i.p. on days 15, 18, 22, 25) | side effects (such as drug dependency and an action of inducing a mental illness) compared to S-ketamine [4] | cognitive impairment at maturity in NORT [5] | effect of ANA-12 pretreatment on the therapeutic effect of R-ketamine in NORT ([1]; PCP-treated mice, ANA-12 0.5 mg/kg i.p. 30 minutes before R-ketamine 10 mg/kg i.p.)
1 | CN[C@]1(c2ccccc2Cl)CCCCC1=O [S-ketamine, reference compound] | did not improve the reduced cognitive function due to PCP administration; also recorded: exhibited no therapeutic effect | stronger affinity toward NMDA receptors; also recorded: about four times higher than R-ketamine |  |  |  |  |  | 
2 | CN[C@@]1(c2ccccc2Cl)CCCCC1=O [R-ketamine] | significantly improved the reduced cognitive function due to PCP administration; also recorded: exhibits a therapeutic effect |  | significantly improved | significantly improved | significantly improved the reduced cognitive function due to PCP administration | fewer side effects | suppressed a cognitive impairment at maturity | 
3 | O=C(Nc1ccccc1C(=O)NC1CCCCNC1=O)c1cc2ccccc2s1 (stereo not drawn) [ANA-12, reference compound] |  |  |  |  |  |  |  | suppressed the therapeutic effect of R-ketamine
